Source: US8883504B2, “Cell differentiation suppressing agent, method of culturing cells using the same, culture solution, and cultured cell line” (Asahi Kasei Kabushiki Kaisha, priority 2003, dated 2014)

Tests used:
[1] = system: mouse embryonic stem cell line D3ES cell; assay: Alkaline phosphatase staining 1; type: cell-based
Protocol: For the D3ES cell obtained by the preparation of the mouse ES cell as described in (3) above, 3×10^2 to 1×10^3 cells per well was seeded in […] of the ES cell assay medium in a well of a 96-well cell culture dish (Falcon Corp. made, Cat. No. 3072, USA) coated previously with a 0.1% aqueous gelatin solution. A 10 μl of the differentiation inhibiting agent (A,B,C,D,E,F: A to D were ASINEX Corp. (Russia) made and E to F were purchased from PHARMEKS Corp. (Russia)) of the present invention or ESGRO, which was dissolved in dimethylsulfoxide (DMSO), or water, or the mixture, was added to each well to make 0.4 to 40 μg/mL, and culturing was carried out at 37° C. in 5% CO2 incubator for 7 days. DMSO added to the medium was adjusted to make a final concentration of 0.1% or lower. On the other hand, to a control well was added only DMSO to make the final concentration of 0.1%.
The ES cells were stained by using an alkaline phosphatase kit (SIGMA Diagnostic Corp. made, Cat. No. 86-R). […]

STAT3 [2] = assay: STAT3 activation assay 1 (pSTAT3-TA-Luc luciferase reporter); type: cell-based, mouse; details: D3ES cells, agent 0.4 to 40 μg/mL or ESGRO 10 to 10,000 unit/mL, 6 to 24 hours, FIG. 5
Protocol: For the D3ES cells prepared by the method described in (3) preparation of a mouse ES cell of Example 1, 1×10^5 cells in 500 μL ES medium were seeded in a well of a 24-well cell culture dish (Falcon Corp. made, Cat No. 3047, USA) coated previously with a 0.1% aqueous gelatin solution, followed by culturing at 37° C. in 5% CO2 incubator for 12 hours to 24 hours. Next, by using LipofectAMINE 2000 (Invitrogen Corp. made, USA) by a protocol attached to the product, 0.9 μg per 1 well of pSTAT3-TA-Luc or pTA-Luc vector (Clontech Corp. made, USA) was transfected into the ES cells. In addition, 0.1 μg of an internal control, pRL-TK vector (Promega Corp. made, USA) was transfected at the same time for each well. Following culturing at 37° C. in 5% CO2 incubator for 4 hours, the medium was sucked, and the cells were washed twice with PBS and, then, a 500 μL-ES assay medium was added to each well. […] Next, by using PicaGene Dual SeaPansy (Toyo Ink made, Japan) by the attached protocol, a luminescence signal generated by a luciferase reporter enzyme of each cell was measured.

STAT3 [3] = assay: STAT3 activation assay 2 (pSTAT3-TA-Luc luciferase reporter); type: cell-based, mouse; details: D3ES cells, agent 0.4 to 40 μg/mL or ESGRO 10 to 10,000 unit/mL, 6 to 24 hours, FIG. 12
Protocol: For the D3ES cells prepared by the method described in (3) preparation of the ES cell of Example 1, 1×10^5 cells were seeded on a 24-well cell culture dish (Falcon, Cat. No. 3047, USA) coated previously with a 0.1% aqueous gelatin solution to make the ES cell medium in 500 μL per 1 well followed by culturing at 37° C. in 5% CO2 incubator for 12 hours to 24 hours. Next, by using LipofectAMINE 2000 (Invitrogen Corp. made, USA) by a protocol attached to the product, 0.9 μg/well of pSTAT3-TA-Luc or pTA-Luc vector (Clontech Corp. made, USA) was transfected into the ES cells. On the other hand, 0.1 μg of the internal control, pRL-TK vector (Promega Corp. made, USA) was transfected at the same time for each well. Following culturing at 37° C. in 5% CO2 incubator for 4 hours, the medium was sucked and washed twice with PBS and, then, the 500 μL-ES assay medium was added to each well. […] Next, by using PicaGene Dual SeaPansy (Toyo Ink, Japan) by the attached protocol, the luminescence signal generated by the luciferase reporter enzyme of each cell was measured.

CC(=O)c1ccc(/N=N/C(C(N)=O)=C2/NC(C)(C)Cc3ccccc32)cc1 [compound B, 2-(4-acetyl-phenylazo)-2-(3,3-dimethyl-3,4-dihydro-2H-isoquinoline-1-ylidene)-acetamide]
undifferentiated colony formation compared with ES cells cultured in the presence of ESGRO (positive control) ([1]; compound 4 μg/mL, ESGRO 1000 units/mL): form an undifferentiated colony equal to that of the ES cells cultured in the presence of ESGRO
alkaline phosphatase staining in comparison with ES cells cultured in the absence of ESGRO ([1]; compound B 4 μg/mL, FIG. 4): stained significantly more densely
expression of the luciferase reporter enzyme by pSTAT3-TA-Luc (STAT3 [2]): did not induce the expression of the reporter enzyme
expression of the luciferase reporter enzyme by pSTAT3-TA-Luc (STAT3 [3]): did not induce the expression of the reporter enzyme
